The first series is described as follows: In vitro release kinetics (Example 69): cleavage rate of the reversible bond at pH 7.4 and 37° C. in aqueous buffer. Format: physicochemical. The conditions noted are these: aqueous sodium phosphate buffer. On the procedure: The cleavage rate of the reversible bond from conjugates 18, 20, 23 was monitored at pH 7.4 and 37° C. in aqueous buffer (pH 7.4 48 mM sodium phosphate, 20% acetonitrile). Disappearance of the conjugate was determined by LCMS (UV detection) and fitted with curve fitting software to obtain the half-life of the release.
With `CC(CCCCC(=O)O)NC(=O)CN(C)C(=O)n1ccnc1` (stereo not shown) [Compound 18], the half-life was 40.8 h.

In turn, `COC(=O)c1ccc2ncn(C(=O)N(C)CC(=O)NC(C)CCCCC(=O)O)c2c1` (stereo not shown) [Compound 20] gave a half-life of 43.2 h.

With `CN(C)CCN(C)C(=O)n1ccc2cc(C(=O)O)ccc21` [Compound 23], the half-life is 744 h.

A further series can be described thus: In vitro release kinetics (Example 34): cleavage rate of the reversible bond at pH 7.4 and 37° C. in aqueous buffer. The conditions noted are these: aqueous sodium phosphate buffer, read-out: t1/2 (pH 7.4) (converted). The class given is physicochemical. As for the experimental part:
For soluble examples disappearance of the conjugate was determined by LCMS (UV detection) and fitted with curve fitting software to obtain the preliminary half-life of the release. For insoluble examples (hydrogels) the increase in released heteroaromatic moiety containing molecule in the supernatant was determined by LCMS (UV detection) and used as input for the curve fitting software to obtain the preliminary half-life of the release.
Compounds marked with “**” were synthesized for comparison.
Take `CNCCNC(=O)[C@H](CC(=O)n1ncc2ccccc21)N(C)C(=O)CCCCCS(=O)(=O)O` [1 h]: the half-life is below 0.000694 days.

With `CCCCOC(=O)n1nc(C(=O)O)c2ccccc21` [Compound 6a], the half-life is 21 days.

Regarding `CCCC(C)OC(=O)n1nc(C(=O)O)c2ccccc21` (stereo not shown) [Compound 6b], the half-life is 99 days.

For the molecule `CC(C)(C)OC(=O)n1nc(C(=O)O)c2ccccc21` [Compound 6c], the half-life is 0.0833 days.

Regarding `CC(CCC(=O)NCCC(=O)O)OC(=O)n1nc(C(=O)O)c2ccccc21` (stereo not shown) [Compound 6d], the half-life is 36 days.

`CC(=O)N[C@H](C(=O)O)[C@H](C)OC(=O)n1nc(C(=O)O)c2ccccc21` [Compound 6e]: the half-life was 1 days.

In the case of `O=C(O)CCNC(=O)[C@H]1CC[C@H](OC(=O)n2nc(C(=O)O)c3ccccc32)CC1` [Compound 6f], the half-life is 39 days.

As for `CCCNC(=O)CN(C)C(=O)n1nc(C(=O)O)c2ccccc21` [Compound 7a], the half-life is 3.5 days.

For `CCC(C)NC(=O)CN(C)C(=O)n1nc(C(=O)O)c2ccccc21` (stereo not shown) [Compound 7b], the half-life was 17 days.

On to `CC(C)[C@H](NC(=O)CN(C)C(=O)n1nc(C(=O)O)c2ccccc21)C(=O)O` [Compound 7c], for which the half-life was above 180 days.

On to `CCCNC(=O)CCN(C)C(=O)n1nc(C(=O)O)c2ccccc21` [Compound 7d], for which the half-life was above 180 days.

As to `CCN(CC(=O)NC(C)CCCCC(=O)O)C(=O)n1nc(C(=O)O)c2ccccc21` (stereo not shown) [Compound 7e], the half-life was 52 days.

For `CCN(CC(=O)NCCCCCC(=O)O)C(=O)n1nc(C(=O)O)c2ccccc21` [Compound 7f], the half-life is 9.6 days.

Turning to `CCN(CC(=O)NCCC(=O)O)C(=O)n1nc(C(=O)O)c2ccccc21` [Compound 7g], the half-life is 7.7 days.

`CCCNC(=O)CN(CC)C(=O)n1nc(C(=O)O)c2ccccc21` [Compound 7h]: the half-life is 8.1 days.

Consider `CCCNC(=O)n1nc(C(=O)O)c2ccccc21` [Compound 7i], for which the half-life is above 180 days.

As for `CN(C)CCN(C)C(=O)n1nc(C(=O)O)c2ccccc21` [Compound 7j], the half-life is 0.121 days.

With `CN(C)CCCN(C)C(=O)n1nc(C(=O)O)c2ccccc21` [Compound 7k], the half-life is 164 days.

As for `C[C@@H](CC(=O)NCCCCCC(=O)O)NC(=O)CN(C)C(=O)n1nc(C(=O)O)c2ccccc21` [Compound 8a], the half-life was 2.4 days.

Regarding `C[C@H](NC(=O)CN(C)C(=O)n1nc(C(=O)O)c2ccccc21)C(=O)NCCCCCC(=O)O` [Compound 8b], the half-life was 0.342 days.

For the molecule `C[C@@H](C(=O)NCCCCCC(=O)O)N(C)C(=O)n1nc(C(=O)O)c2ccccc21` [Compound 8c], the half-life was 13 days.

`O=C(O)CCCCCNC(=O)[C@@H]1CCCN1C(=O)n1nc(C(=O)O)c2ccccc21` [Compound 8d]: the half-life is 12 days.

A short description of a further series: In vitro release kinetics (Example 59): cleavage rate of the reversible bond at 37° C. in aqueous buffer, conditions A-F. Format: physicochemical. The conditions noted are these: aqueous sodium phosphate buffer, pH 7.4. On the procedure: The cleavage rate of the reversible bond from conjugates 9a-d, 13a-e and 17b-q was monitored at 37° C. in aqueous buffer (condition A: pH 7.4 60 mM sodium phosphate, 1% acetonitrile, B: pH 7.4 48 mM sodium phosphate, 20% acetonitrile, 0.1% Pluronic F68, C: pH 7.4 48 mM sodium phosphate with 16 mM L-Methionine 2.4 mM EDTA, 0.1% pluronic and 20% acetonitrile, D: pH 7.0 48 mM sodium phosphate with 16 mM L-Methionine 2.4 mM EDTA, 0.1% pluronic and 20% acetonitrile, E: pH 7.4 60 mM sodium phosphate, F: pH 7.4 48 mM sodium phosphate, 20% acetonitrile). For soluble examples disappearance of the conjugate was determined by LCMS (UV detection) and fitted with curve fitting software to obtain the half-life of the release. For insoluble examples (hydrogels) the increase in released axitinib in the supernatant was determined by LCMS (UV detection) and used as input for the curve fitting software to obtain the half-life of the release. Release rates at pH 7.4 for conjugates only incubated at pH 7.0 are estimated to increase by a factor of 2 to 3.
The compounds marked with “*” are not in accordance with the present invention as they were for efficiency reasons not linked to a moiety Z. Nevertheless, they show the release half-lives of such moieties -L^1-.
In turn, `CCN(CC(=O)NCCC(=O)O)C(=O)n1nc(/C=C/c2ccccn2)c2ccc(Sc3ccccc3C(=O)NC)cc21` [Compound 9a] gave a half-life of 96 h.

The molecule `CNC(=O)c1ccccc1Sc1ccc2c(/C=C/c3ccccn3)nn(C(=O)N(C)CC(=O)N[C@@H](C)CC(=O)O)c2c1` [Compound 9b] had a half-life of 276 h.

`CNC(=O)c1ccccc1Sc1ccc2c(/C=C/c3ccccn3)nn(C(=O)N(C)CC(=O)N[C@H](C(=O)O)C(C)C)c2c1` [Compound 9c] had a half-life of 1130 h.

As for `CCN(CC(=O)NCCCCCC(=O)O)C(=O)n1nc(/C=C/c2ccccn2)c2ccc(Sc3ccccc3C(=O)NC)cc21` [Compound 9d], the half-life was 110 h.

In the case of `C[C@@H](CC(=O)N(C)CCC(=O)O)NC(=O)CN(C)C(=O)n1nc(C(=O)O)c2ccccc21` [Compound 13a], the half-life was 101 h.

In the case of `C[C@@H](CC(=O)O)NC(=O)C[C@H](C)NC(=O)CN(C)C(=O)n1nc(C(=O)O)c2ccccc21` [Compound 13b], the half-life is 86.4 h.

`C[C@@H](CCC(=O)NCCCCCC(=O)O)NC(=O)CN(C)C(=O)n1nc(C(=O)O)c2ccccc21` [Compound 13c] had a half-life of 166 h.

For `CCN(CC(=O)NCCOCCOCC(=O)O)C(=O)n1nc(C(=O)O)c2ccccc21` [Compound 13d], the half-life is 76.8 h.

`O=C(O)CCCCCNC(=O)CONC(=O)CNC(=O)n1nc(C(=O)O)c2ccccc21` [Compound 13e] showed a half-life of 108 h.

Values taken from patent US20230065814A1, “CONJUGATES OF-ELECTRON-PAIR-DONATING HETEROAROMATIC NITROGEN-COMPRISING COMPOUNDS” (Ascendis Pharma A/S, priority 2019, published 2023).
